Results reported in ChEMBL document CHEMBL4507292 (2021).

Experiments:
[1] = molecular target: Receptor-interacting serine/threonine-protein kinase 4 (Homo sapiens) (UniProt P57078); settings: Compound concentration 1000.0 nM
[2] = molecular target: Serine/threonine-protein kinase TAO1 (Homo sapiens) (UniProt Q7L7X3); settings: Compound concentration 1000.0 nM
[3] = molecular target: Mitogen-activated protein kinase kinase kinase 19 (Homo sapiens) (UniProt Q56UN5); settings: Compound concentration 1000.0 nM
[4] = molecular target: Cyclin-dependent kinase 15 (Homo sapiens) (UniProt Q96Q40); settings: Compound concentration 1000.0 nM
[5] = molecular target: 5-hydroxytryptamine receptor 1E (Homo sapiens) (UniProt P28566); settings: Compound concentration 10.0 uM
[6] = molecular target: Cyclin-dependent kinase 18 (Homo sapiens) (UniProt Q07002); settings: Compound concentration 1000.0 nM
[7] = molecular target: Receptor tyrosine-protein kinase erbB-3 (Homo sapiens) (UniProt P21860); settings: Compound concentration 1000.0 nM
[8] = molecular target: T1, Alpha-2C adrenergic receptor (Homo sapiens) (UniProt P18825); settings: Compound concentration 10.0 uM
T1 sequence (whole entry): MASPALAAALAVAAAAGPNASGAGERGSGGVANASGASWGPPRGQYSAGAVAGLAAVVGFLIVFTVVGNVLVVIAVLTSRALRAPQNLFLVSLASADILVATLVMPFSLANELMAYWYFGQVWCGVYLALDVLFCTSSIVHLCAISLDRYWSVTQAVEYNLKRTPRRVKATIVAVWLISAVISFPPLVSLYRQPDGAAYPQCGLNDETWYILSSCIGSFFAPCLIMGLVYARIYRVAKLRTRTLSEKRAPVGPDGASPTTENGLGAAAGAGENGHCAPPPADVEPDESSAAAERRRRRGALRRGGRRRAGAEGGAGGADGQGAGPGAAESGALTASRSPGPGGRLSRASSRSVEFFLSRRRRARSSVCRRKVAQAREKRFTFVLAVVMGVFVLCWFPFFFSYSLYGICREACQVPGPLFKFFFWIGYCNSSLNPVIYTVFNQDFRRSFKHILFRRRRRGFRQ

[9] = molecular target: Serine/threonine-protein kinase N2 (Homo sapiens) (UniProt Q16513); settings: Compound concentration 1000.0 nM
[10] = molecular target: Activin receptor type-2A (Homo sapiens) (UniProt P27037); settings: Compound concentration 1000.0 nM
[11] = molecular target: Serine/threonine-protein kinase 25 (Homo sapiens) (UniProt O00506); settings: Compound concentration 1000.0 nM
[12] = molecular target: Dual specificity tyrosine-phosphorylation-regulated kinase 1A (Homo sapiens) (UniProt Q13627); settings: Compound concentration 1000.0 nM
[13] = molecular target: Testis-specific serine/threonine-protein kinase 1 (Homo sapiens) (UniProt Q9BXA7); settings: Compound concentration 1000.0 nM
[14] = molecular target: Serine/threonine-protein kinase Nek10 (Homo sapiens) (UniProt Q6ZWH5); settings: Compound concentration 1000.0 nM
[15] = molecular target: Serine/threonine-protein kinase 38-like (Homo sapiens) (UniProt Q9Y2H1); settings: Compound concentration 1000.0 nM
[16] = molecular target: Proto-oncogene tyrosine-protein kinase Src (Homo sapiens) (UniProt P12931); settings: Compound concentration 1000.0 nM
[17] = molecular target: Ribosomal protein S6 kinase alpha-6 (Homo sapiens) (UniProt Q9UK32); settings: Compound concentration 1000.0 nM
[18] = molecular target: Cyclin-dependent kinase 17 (Homo sapiens) (UniProt Q00537); settings: Compound concentration 1000.0 nM
[19] = molecular target: Alpha-1A adrenergic receptor (Homo sapiens) (UniProt P35348); settings: Compound concentration 10.0 uM
[20] = molecular target: Mitogen-activated protein kinase 10 (Homo sapiens) (UniProt P53779); settings: Compound concentration 1000.0 nM
[21] = molecular target: Bone morphogenetic protein receptor type-1A (Homo sapiens) (UniProt P36894); settings: Compound concentration 1000.0 nM
[22] = molecular target: Mitogen-activated protein kinase kinase kinase kinase 2 (Homo sapiens) (UniProt Q12851); settings: Compound concentration 1000.0 nM
[23] = molecular target: Histamine H2 receptor (Homo sapiens) (UniProt P25021); settings: Compound concentration 10.0 uM
[24] = molecular target: Serine/threonine-protein kinase PAK 6 (Homo sapiens) (UniProt Q9NQU5); settings: Compound concentration 1000.0 nM
[25] = molecular target: Kappa-type opioid receptor (Homo sapiens, UniProt P41145); settings: Compound concentration 10.0 uM
[26] = molecular target: Protein-tyrosine kinase 6 (Homo sapiens) (UniProt Q13882); settings: Compound concentration 1000.0 nM
[27] = molecular target: Tyrosine-protein kinase JAK3 (Homo sapiens) (UniProt P52333); settings: Compound concentration 1000.0 nM
[28] = molecular target: Cyclin-dependent kinase 5 (Homo sapiens) (UniProt Q00535); settings: Compound concentration 1000.0 nM
[29] = molecular target: Ribosomal protein S6 kinase alpha-1 (Homo sapiens) (UniProt Q15418); settings: Compound concentration 1000.0 nM
[30] = molecular target: Serine/threonine-protein kinase VRK2 (Homo sapiens) (UniProt Q86Y07); settings: Compound concentration 1000.0 nM
[31] = tested on: Receptor-type tyrosine-protein kinase FLT3 (Homo sapiens), P36888 [R834Q]; settings: Compound concentration 1000.0 nM
[32] = molecular target: G protein-coupled receptor kinase 3 (Homo sapiens) (UniProt P35626); settings: Compound concentration 1000.0 nM
[33] = molecular target: Fibroblast growth factor receptor 4 (Homo sapiens) (UniProt P22455); settings: Compound concentration 1000.0 nM
[34] = molecular target: Protein-tyrosine kinase 2-beta (Homo sapiens) (UniProt Q14289); settings: Compound concentration 1000.0 nM
[35] = molecular target: 5'-AMP-activated protein kinase catalytic subunit alpha-1 (Homo sapiens) (UniProt Q13131); settings: Compound concentration 1000.0 nM
[36] = molecular target: Serine/threonine-protein kinase pim-3 (Homo sapiens) (UniProt Q86V86); settings: Compound concentration 1000.0 nM
[37] = molecular target: Dual specificity testis-specific protein kinase 1 (Homo sapiens) (UniProt Q15569); settings: Compound concentration 1000.0 nM
[38] = tested on: Epidermal growth factor receptor (Homo sapiens), P00533 [G719C]; settings: Compound concentration 1000.0 nM
[39] = molecular target: SRSF protein kinase 1 (Homo sapiens) (UniProt Q96SB4); settings: Compound concentration 1000.0 nM

Chain of Kappa-type opioid receptor (P41145 whole entry): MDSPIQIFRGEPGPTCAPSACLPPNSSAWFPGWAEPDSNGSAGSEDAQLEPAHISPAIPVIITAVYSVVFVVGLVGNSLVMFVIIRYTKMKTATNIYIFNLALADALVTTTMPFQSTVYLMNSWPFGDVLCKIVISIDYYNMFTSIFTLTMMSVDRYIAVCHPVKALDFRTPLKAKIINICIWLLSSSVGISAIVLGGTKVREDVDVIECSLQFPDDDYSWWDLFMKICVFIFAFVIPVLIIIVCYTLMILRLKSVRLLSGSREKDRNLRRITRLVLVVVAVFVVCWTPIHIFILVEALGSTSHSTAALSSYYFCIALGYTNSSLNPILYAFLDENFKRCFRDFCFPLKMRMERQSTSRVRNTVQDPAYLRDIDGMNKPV
Chain of Proto-oncogene tyrosine-protein kinase Src (Homo sapiens) (P12931 2-536 limits assumed): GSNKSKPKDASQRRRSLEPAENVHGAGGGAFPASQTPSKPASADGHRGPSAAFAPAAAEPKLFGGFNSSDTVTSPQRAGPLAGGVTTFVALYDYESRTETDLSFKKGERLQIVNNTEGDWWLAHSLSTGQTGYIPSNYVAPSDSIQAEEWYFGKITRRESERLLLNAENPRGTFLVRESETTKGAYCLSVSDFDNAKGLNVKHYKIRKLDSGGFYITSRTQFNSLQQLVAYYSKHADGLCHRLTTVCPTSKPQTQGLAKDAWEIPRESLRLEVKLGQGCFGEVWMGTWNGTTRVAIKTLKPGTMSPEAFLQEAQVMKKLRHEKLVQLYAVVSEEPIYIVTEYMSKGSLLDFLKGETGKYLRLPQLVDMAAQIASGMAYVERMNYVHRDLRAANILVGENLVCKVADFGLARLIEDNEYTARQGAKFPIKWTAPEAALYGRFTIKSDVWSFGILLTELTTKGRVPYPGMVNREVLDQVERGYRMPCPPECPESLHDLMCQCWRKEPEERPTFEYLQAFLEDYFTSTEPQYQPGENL
Chain of Receptor-interacting serine/threonine-protein kinase 4 (Homo sapiens) (P57078 whole entry): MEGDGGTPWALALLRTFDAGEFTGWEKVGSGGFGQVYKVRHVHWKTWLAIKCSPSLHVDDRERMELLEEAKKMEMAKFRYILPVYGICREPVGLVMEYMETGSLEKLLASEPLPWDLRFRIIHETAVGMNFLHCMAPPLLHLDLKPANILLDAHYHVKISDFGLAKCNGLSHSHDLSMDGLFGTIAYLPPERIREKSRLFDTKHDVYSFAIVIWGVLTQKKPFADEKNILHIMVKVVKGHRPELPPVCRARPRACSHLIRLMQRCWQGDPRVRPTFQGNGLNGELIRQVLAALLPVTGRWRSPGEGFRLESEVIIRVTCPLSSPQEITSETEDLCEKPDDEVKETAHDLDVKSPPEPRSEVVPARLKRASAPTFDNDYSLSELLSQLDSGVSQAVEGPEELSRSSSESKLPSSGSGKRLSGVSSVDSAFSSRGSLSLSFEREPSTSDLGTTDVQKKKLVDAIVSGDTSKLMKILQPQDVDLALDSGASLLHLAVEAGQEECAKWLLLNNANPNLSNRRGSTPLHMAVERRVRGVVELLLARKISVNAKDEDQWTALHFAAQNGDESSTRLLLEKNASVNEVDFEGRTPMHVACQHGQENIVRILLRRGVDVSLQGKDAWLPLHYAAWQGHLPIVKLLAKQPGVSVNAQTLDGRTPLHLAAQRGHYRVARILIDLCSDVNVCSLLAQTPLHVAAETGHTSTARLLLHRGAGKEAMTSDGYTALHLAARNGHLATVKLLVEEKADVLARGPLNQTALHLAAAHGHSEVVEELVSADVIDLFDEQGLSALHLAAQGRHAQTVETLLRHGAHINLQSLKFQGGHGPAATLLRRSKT
Chain of Serine/threonine-protein kinase PAK 6 (Homo sapiens) (Q9NQU5 whole entry, looked up): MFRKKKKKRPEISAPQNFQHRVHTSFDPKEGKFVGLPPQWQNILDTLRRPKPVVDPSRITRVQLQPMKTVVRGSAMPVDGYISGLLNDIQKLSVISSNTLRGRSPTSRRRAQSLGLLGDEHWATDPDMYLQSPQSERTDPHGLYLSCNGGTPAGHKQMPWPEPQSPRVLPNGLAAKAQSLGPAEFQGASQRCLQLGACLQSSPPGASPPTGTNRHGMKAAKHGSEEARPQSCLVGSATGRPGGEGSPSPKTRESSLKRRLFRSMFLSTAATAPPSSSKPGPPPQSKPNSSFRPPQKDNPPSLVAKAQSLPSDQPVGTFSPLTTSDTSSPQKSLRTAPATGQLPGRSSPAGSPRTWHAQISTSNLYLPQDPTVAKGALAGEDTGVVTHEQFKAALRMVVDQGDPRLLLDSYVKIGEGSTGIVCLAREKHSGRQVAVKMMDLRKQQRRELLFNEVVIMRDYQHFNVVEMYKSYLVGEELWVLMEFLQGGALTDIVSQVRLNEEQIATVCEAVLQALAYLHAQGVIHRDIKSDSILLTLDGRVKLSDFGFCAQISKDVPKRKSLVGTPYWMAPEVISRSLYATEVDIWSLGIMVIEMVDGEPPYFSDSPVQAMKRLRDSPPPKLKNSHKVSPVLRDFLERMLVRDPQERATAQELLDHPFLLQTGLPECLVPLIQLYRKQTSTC
Chain of Serine/threonine-protein kinase VRK2 (Homo sapiens) (Q86Y07 whole entry): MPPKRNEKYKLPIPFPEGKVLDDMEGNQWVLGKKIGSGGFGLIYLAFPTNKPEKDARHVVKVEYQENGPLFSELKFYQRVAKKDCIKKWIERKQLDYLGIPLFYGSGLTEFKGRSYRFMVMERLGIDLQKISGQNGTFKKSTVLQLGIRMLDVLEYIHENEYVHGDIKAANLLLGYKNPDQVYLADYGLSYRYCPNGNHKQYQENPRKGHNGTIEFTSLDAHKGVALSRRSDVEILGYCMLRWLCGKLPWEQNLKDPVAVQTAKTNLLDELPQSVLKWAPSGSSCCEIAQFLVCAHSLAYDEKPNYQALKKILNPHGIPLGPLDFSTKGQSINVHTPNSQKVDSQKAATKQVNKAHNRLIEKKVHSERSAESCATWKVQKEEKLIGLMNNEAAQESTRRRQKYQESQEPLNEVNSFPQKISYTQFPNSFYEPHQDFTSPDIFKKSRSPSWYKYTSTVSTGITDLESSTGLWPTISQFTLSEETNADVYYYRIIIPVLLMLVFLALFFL
Chain of Testis-specific serine/threonine-protein kinase 1 (Homo sapiens) (Q9BXA7 whole entry): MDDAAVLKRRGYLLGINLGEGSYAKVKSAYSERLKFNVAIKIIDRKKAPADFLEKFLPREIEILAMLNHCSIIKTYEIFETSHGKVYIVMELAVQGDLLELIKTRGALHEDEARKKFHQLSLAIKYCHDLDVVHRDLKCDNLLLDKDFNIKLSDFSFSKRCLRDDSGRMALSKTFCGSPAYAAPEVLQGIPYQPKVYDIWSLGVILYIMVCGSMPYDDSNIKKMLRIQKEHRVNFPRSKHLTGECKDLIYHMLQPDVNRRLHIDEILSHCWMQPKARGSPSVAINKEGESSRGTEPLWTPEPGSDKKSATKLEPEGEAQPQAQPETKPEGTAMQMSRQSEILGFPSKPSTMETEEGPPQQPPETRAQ
Chain of Ribosomal protein S6 kinase alpha-1 (Homo sapiens) (Q15418 whole entry): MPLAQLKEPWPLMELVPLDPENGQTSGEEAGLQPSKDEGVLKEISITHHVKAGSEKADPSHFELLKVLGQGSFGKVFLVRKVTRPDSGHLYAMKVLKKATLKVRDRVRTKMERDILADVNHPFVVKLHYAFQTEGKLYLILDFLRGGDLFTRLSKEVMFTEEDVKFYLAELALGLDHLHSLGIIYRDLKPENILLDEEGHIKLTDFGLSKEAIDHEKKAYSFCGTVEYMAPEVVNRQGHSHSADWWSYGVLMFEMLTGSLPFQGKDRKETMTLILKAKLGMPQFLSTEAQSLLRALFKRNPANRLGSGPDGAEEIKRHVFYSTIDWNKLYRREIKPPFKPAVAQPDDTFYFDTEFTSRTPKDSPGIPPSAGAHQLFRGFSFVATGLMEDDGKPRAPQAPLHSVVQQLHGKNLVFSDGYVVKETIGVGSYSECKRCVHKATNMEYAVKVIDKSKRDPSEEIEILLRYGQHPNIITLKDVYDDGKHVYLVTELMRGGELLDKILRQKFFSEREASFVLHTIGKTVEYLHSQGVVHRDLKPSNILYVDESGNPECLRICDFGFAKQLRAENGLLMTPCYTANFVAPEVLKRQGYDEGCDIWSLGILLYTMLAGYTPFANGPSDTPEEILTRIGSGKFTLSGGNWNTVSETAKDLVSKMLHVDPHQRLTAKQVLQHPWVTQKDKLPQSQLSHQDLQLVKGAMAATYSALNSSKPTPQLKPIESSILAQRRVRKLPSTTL
Chain of 5'-AMP-activated protein kinase catalytic subunit alpha-1 (Homo sapiens) (Q13131 whole entry, looked up): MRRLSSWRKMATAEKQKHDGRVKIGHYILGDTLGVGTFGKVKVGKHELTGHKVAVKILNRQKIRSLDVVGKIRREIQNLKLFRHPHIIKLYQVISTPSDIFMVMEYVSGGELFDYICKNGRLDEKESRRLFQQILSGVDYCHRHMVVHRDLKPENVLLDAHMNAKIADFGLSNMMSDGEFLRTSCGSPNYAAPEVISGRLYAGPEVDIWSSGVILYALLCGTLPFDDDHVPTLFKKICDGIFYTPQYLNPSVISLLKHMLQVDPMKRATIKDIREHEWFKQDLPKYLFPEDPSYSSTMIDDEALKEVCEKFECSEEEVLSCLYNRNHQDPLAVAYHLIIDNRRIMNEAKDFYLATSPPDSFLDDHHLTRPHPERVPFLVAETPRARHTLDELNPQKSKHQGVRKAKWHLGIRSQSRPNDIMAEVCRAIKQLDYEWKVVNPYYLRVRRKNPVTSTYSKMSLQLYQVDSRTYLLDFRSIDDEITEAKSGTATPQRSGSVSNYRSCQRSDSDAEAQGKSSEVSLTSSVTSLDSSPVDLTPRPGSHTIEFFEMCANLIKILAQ
Chain of Histamine H2 receptor (Homo sapiens) (P25021 whole entry): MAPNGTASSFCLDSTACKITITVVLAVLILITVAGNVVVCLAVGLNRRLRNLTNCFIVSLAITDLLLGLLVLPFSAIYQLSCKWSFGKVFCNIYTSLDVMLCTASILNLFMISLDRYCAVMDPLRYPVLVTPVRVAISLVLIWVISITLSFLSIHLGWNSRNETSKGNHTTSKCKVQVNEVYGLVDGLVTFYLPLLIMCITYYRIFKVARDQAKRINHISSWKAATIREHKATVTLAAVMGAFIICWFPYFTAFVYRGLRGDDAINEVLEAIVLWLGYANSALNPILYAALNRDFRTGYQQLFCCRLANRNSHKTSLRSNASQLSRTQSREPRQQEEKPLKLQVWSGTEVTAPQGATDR

Cc1c(C(=O)O)cc(-c2ccc(C3CCNCC3)cc2)c2ccc(-c3ccc(C(F)(F)F)cc3)cc12 [PPTN-NC]
inactive: residual activity [1] 97% | residual activity [2] 100% | residual activity [3] 100% | residual activity [4] 100% | inhibition [5] 3.48% | residual activity [6] 100% | residual activity [7] 86% | inhibition [8] 46.4% | residual activity [9] 100% | residual activity [10] 87% | residual activity [11] 100% | residual activity [12] 100% | residual activity [13] 100% | residual activity [14] 100% | residual activity [15] 100% | residual activity [16] 100% | residual activity [17] 100% | residual activity [18] 100% | inhibition [19] 25.4% | residual activity [20] 100% | residual activity [21] 100% | residual activity [22] 100% | inhibition [23] 9% | residual activity [24] 100% | inhibition [25] 27.9% | residual activity [26] 100% | residual activity [27] 100% | residual activity [28] 100% | residual activity [29] 100% | residual activity [30] 100% | residual activity [31] 100% | residual activity [32] 71% | residual activity [33] 100% | residual activity [34] 100% | residual activity [35] 98% | residual activity [36] 100% | residual activity [37] 93% | residual activity [38] 100% | residual activity [39] 100%

O=C(O)c1cc(-c2ccc(C3CCNCC3)cc2)c2ccc(-c3ccc(C(F)(F)F)cc3)cc2c1 [PPTN]
inactive: residual activity [1] 100% | residual activity [2] 100% | residual activity [3] 100% | residual activity [4] 96% | inhibition [5] 13.4% | residual activity [6] 100% | residual activity [7] 85% | inhibition [8] 30.2% | residual activity [9] 100% | residual activity [10] 100% | residual activity [11] 100% | residual activity [12] 100% | residual activity [13] 100% | residual activity [14] 100% | residual activity [15] 100% | residual activity [16] 100% | residual activity [17] 100% | residual activity [18] 100% | inhibition [19] 46.7% | residual activity [20] 100% | residual activity [21] 100% | residual activity [22] 100% | inhibition [23] 28% | residual activity [24] 100% | inhibition [25] 41.7% | residual activity [26] 100% | residual activity [27] 100% | residual activity [28] 100% | residual activity [29] 100% | residual activity [30] 100% | residual activity [31] 100% | residual activity [32] 68% | residual activity [33] 100% | residual activity [34] 100% | residual activity [35] 100% | residual activity [36] 100% | residual activity [37] 100% | residual activity [38] 100% | residual activity [39] 86%
